SMILES: O=C(NCC1C2CCC1CNC2)C(O)(c1ccccc1)c1ccccc1 (stereo not shown)
- melting point: 85.2 °C
